Common to all, as to experiment: kinome screen (33PanQinase)
Common to all, as to format: biochemical

One assay addresses T1, IKKε (Homo sapiens, UniProt Q14164).
T1 construct: purchased Reaction Biology Europe GmbH (formerly ProQinase)
T1 sequence (Q14164 1-716): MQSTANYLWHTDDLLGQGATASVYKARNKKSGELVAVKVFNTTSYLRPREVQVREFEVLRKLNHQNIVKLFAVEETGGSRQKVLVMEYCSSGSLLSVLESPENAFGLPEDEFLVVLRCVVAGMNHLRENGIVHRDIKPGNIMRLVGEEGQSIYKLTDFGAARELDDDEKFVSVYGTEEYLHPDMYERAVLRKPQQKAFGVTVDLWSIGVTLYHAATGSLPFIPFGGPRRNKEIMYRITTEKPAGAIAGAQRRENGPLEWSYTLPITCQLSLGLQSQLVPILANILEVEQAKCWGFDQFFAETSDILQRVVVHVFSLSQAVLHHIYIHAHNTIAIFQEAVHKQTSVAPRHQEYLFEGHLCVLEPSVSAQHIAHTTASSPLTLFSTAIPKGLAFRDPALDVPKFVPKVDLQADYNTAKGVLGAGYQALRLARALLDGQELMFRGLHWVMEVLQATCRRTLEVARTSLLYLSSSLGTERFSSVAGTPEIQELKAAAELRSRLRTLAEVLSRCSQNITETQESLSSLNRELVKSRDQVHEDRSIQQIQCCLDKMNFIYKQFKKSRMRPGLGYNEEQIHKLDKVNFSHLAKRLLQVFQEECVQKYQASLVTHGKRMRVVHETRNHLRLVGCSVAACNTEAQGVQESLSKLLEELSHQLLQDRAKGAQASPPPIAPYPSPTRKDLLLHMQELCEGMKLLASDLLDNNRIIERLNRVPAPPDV
Here is the method:
(§1) The Kinome Screening was performed by Reaction Biology Europe GmbH (http://reactionbiology.com; Freiburg i. Br., Germany).

A further assay has as its target T2, CK1γ1 (Homo sapiens, UniProt Q9HCP0).
T2 construct: purchased Reaction Biology Europe GmbH (formerly ProQinase)
Here is the method:
as §1

The target in the next assay is T3, MKK7 (Homo sapiens, UniProt O14733).
T3 construct: purchased Reaction Biology Europe GmbH (formerly ProQinase)
T3 sequence (O14733 1-419): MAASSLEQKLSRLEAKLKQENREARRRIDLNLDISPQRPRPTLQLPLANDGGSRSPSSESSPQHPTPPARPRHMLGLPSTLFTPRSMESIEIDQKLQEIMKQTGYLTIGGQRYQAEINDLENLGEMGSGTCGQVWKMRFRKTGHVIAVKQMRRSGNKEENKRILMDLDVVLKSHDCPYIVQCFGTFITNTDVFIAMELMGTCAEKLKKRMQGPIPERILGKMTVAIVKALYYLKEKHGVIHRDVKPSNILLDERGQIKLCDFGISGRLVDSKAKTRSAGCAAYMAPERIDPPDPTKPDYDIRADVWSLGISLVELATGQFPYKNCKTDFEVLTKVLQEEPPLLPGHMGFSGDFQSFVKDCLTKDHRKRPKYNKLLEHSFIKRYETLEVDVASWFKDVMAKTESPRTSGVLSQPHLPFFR
Here is the method: as §1

For the next assay, the target named is T4, MST2 (Homo sapiens, UniProt Q13188).
T4 construct: purchased Reaction Biology Europe GmbH (formerly ProQinase)
T4 sequence (Q13188 1-491): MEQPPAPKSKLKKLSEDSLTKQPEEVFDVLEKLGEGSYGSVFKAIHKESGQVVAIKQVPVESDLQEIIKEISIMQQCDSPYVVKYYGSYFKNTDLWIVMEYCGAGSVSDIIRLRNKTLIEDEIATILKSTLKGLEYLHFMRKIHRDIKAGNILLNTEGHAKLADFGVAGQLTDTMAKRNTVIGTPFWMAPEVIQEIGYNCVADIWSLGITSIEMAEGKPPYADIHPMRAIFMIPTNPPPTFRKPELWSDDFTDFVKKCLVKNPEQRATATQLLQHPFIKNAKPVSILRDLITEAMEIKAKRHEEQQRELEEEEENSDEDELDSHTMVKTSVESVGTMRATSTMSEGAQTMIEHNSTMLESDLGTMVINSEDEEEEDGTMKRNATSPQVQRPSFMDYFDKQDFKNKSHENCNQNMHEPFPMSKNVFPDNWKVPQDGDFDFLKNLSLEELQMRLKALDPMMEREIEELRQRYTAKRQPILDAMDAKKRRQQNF
Here is the method:
as §1

In another assay the target is T5, EPHB3 (Homo sapiens, UniProt P54753).
T5 construct: purchased Reaction Biology Europe GmbH (formerly ProQinase)
T5 sequence (P54753 34-998): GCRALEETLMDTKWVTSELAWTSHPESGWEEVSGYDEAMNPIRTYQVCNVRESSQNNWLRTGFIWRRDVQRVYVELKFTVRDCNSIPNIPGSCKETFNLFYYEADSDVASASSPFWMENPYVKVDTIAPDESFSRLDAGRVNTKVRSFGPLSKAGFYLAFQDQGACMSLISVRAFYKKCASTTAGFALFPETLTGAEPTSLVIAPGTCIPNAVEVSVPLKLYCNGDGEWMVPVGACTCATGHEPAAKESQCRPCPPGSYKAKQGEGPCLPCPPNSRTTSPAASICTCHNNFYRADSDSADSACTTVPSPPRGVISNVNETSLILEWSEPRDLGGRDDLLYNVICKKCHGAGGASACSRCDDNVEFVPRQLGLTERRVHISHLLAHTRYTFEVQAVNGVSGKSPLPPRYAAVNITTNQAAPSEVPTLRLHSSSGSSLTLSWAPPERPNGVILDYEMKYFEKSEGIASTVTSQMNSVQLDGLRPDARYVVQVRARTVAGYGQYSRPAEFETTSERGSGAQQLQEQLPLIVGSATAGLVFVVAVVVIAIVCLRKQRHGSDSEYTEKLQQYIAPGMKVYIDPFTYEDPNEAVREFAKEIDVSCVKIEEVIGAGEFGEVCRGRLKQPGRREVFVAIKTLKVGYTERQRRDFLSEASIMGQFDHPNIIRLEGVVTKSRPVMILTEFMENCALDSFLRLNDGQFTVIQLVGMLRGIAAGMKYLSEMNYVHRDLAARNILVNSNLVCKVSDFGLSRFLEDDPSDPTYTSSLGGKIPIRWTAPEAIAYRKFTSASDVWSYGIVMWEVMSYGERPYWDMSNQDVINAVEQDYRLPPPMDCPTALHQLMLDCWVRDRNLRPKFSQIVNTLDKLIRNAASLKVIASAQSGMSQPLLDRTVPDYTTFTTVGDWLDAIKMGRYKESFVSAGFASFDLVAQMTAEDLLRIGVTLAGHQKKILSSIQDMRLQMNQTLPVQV
Here is the method:
as §1

A further assay addresses T6, CDK8/CycC (Homo sapiens, UniProt P49336).
T6 construct: purchased Reaction Biology Europe GmbH (formerly ProQinase)
Here is the method:
as §1

Experimental findings from PMC11167047 (Cell Death Discovery, 2024) are described below.

T2 sequence (Q9HCP0 whole entry): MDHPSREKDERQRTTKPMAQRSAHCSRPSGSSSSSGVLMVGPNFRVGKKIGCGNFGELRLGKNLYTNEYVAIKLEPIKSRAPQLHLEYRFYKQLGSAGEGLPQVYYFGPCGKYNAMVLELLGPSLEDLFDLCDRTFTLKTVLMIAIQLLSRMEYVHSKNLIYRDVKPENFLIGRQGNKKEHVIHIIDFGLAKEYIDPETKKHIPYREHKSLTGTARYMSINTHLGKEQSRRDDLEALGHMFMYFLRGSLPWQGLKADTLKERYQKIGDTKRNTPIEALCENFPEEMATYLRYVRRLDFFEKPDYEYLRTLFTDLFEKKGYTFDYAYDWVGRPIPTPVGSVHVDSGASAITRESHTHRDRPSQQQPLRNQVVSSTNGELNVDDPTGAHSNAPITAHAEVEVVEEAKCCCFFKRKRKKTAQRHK
T6 sequence (P49336 whole entry): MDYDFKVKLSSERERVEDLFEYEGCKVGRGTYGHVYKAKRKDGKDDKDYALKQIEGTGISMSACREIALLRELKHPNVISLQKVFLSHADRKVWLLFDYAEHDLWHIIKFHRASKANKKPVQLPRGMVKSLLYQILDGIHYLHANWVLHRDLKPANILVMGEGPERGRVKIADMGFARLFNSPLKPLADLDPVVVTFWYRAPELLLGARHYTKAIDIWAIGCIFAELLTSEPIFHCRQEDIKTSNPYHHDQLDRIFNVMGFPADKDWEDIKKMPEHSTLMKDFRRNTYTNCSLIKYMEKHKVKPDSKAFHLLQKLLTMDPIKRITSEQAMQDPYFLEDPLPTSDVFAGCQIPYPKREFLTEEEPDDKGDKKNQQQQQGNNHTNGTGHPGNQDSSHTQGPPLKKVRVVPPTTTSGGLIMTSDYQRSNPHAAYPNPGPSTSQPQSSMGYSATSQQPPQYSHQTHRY
T6 sequence (P24863 whole entry partner): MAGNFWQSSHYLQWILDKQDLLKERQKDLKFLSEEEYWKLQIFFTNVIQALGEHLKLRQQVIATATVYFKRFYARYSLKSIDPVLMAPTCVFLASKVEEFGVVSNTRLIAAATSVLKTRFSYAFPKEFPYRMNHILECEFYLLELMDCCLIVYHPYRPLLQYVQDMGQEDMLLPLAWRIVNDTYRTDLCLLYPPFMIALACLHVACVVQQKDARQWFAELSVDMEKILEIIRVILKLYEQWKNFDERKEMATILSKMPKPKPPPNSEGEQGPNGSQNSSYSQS

On to `c1ccc(CNc2cc(-c3c[nH]c4ncccc34)ccn2)cc1` [meriolin 36], for which the residual kinase activity is reported as 40 % of control on IKKε (0.3 µM); 6 % of control on IKKε (3 µM); 23 % of control on CK1γ1 (0.3 µM); 3 % of control on CK1γ1 (3 µM); 81 % of control at MKK7 (0.3 µM); 48 % of control on MKK7 (3 µM). For the same molecule, the residual kinase activity is 19 % of control at MST2 (0.3 µM); 4 % of control at MST2 (3 µM); 91 % of control on EPHB3 (0.3 µM); 67 % of control at EPHB3 (3 µM); 5 % of control at CDK8/CycC (0.3 µM); 2 % of control on CDK8/CycC (3 µM).
For the molecule `COc1ccnc2[nH]cc(-c3cc(N)nc(N)c3)c12` [meriolin 16], the residual kinase activity is 94 % of control on IKKε (0.03 µM); 61 % of control on IKKε (0.3 µM); 87 % of control on CK1γ1 (0.03 µM); 38 % of control at CK1γ1 (0.3 µM); 96 % of control at MKK7 (0.03 µM); 88 % of control on MKK7 (0.3 µM). For the same molecule, the residual kinase activity on MST2 (0.03 µM) is on record as 100 % of control; at MST2 (0.3 µM), 77 % of control; on EPHB3 (0.03 µM), 101 % of control; at EPHB3 (0.3 µM), 99 % of control; at CDK8/CycC (0.03 µM), 6 % of control; on CDK8/CycC (0.3 µM), 4 % of control.
